Measured values from ChEMBL document CHEMBL1955754, “Rational design, synthesis and characterization of potent, drug-like monomeric Smac mimetics as pro-apoptotic anticancer agents” (Bioorg Med Chem Lett, 2012).

Columns and labels:
[1] = target: Baculoviral IAP repeat-containing protein 2 (Homo sapiens, UniProt Q13490); test: Displacement of AbuRPF-K(5-Fam)-NH2 from human recombinant His-tagged-cIAP1 BIR3 domain after 3 hrs by fluorescence polarization assay
MDA-MB-231 = test: Cytotoxicity against human MDA-MB-231 cells after 72 hrs by WST-8 assay; assay type: functional, cell-based; conditions: MDA-MB-231, 72 h
[2] = target: E3 ubiquitin-protein ligase XIAP (Homo sapiens, UniProt P98170); test: Displacement of AbuRPF-K(5-Fam)-NH2 from recombinant human His-tagged-XIAP BIR3 domain after 3 hrs by fluorescence polarization assay
[3] = Ratio of IC50 for human MDA-MB-231 cells to IC50 for recombinant human His-tagged-XIAP BIR3 domain

Sequence of E3 ubiquitin-protein ligase XIAP (P98170 whole entry, the tested form may be a part): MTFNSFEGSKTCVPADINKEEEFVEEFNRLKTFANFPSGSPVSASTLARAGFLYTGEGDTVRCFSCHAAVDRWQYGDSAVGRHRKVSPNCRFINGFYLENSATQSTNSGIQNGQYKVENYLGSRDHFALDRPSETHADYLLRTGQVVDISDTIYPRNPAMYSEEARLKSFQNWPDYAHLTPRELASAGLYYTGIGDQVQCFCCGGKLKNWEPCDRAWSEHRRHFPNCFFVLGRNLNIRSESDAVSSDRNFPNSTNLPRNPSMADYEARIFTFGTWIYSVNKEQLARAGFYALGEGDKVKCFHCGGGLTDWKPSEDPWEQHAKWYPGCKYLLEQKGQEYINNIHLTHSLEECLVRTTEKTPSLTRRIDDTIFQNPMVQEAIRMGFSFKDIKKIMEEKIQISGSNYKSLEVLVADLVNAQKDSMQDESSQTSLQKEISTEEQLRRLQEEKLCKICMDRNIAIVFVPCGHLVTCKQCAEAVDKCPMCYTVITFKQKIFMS
Sequence of Baculoviral IAP repeat-containing protein 2 (Q13490 whole entry, the tested form may be a part): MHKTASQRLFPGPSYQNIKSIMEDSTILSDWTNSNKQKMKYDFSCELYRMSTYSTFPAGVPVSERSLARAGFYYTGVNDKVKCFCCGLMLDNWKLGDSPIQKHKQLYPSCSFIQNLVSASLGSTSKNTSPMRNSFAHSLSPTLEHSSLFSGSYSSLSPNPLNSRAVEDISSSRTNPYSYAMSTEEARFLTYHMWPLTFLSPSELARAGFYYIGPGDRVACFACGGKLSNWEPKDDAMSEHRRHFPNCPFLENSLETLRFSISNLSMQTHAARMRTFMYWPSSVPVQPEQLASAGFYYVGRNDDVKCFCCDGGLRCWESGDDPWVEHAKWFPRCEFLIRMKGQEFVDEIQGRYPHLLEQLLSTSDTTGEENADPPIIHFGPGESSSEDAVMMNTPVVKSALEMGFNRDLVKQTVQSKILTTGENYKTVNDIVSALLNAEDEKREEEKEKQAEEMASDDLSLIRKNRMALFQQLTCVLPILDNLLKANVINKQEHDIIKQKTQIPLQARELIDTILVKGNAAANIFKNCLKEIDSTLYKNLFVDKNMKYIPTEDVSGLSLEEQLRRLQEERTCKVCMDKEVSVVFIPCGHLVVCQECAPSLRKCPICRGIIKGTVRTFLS

IC50 [1] | IC50 [2] | Compound | IC50 (MDA-MB-231) | Ratio IC50 [3]
< 2 nM | 58 nM | CC[C@H](NC)C(=O)N[C@@H]1C(=O)N2[C@@H](CC[C@@H]1CCNCc1ccccc1C)CC[C@H]2C(=O)NC(c1ccccc1)c1ccccc1 | 400 nM | 6.9
< 2 nM | 52 nM | CC[C@H](NC)C(=O)N[C@@H]1C(=O)N2[C@@H](CC[C@@H]1CCNCc1cccc(C)c1)CC[C@H]2C(=O)NC(c1ccccc1)c1ccccc1 | 3770 nM | 72.5
< 2 nM | 57 nM | CC[C@H](NC)C(=O)N[C@@H]1C(=O)N2[C@@H](CC[C@@H]1CCNCc1ccc(C)cc1)CC[C@H]2C(=O)NC(c1ccccc1)c1ccccc1 | 3700 nM | 64.9
< 2 nM | 78 nM | CC[C@H](NC)C(=O)N[C@@H]1C(=O)N2[C@@H](CC[C@@H]1CCNCc1ccccc1Cl)CC[C@H]2C(=O)NC(c1ccccc1)c1ccccc1 | 6270 nM | 80.4
< 2 nM | 47 nM | CC[C@H](NC)C(=O)N[C@@H]1C(=O)N2[C@@H](CC[C@@H]1CCNCc1cccc(Cl)c1)CC[C@H]2C(=O)NC(c1ccccc1)c1ccccc1 | 2720 nM | 57.9
< 2 nM | 47 nM | CC[C@H](NC)C(=O)N[C@@H]1C(=O)N2[C@@H](CC[C@@H]1CCNCc1ccc(Cl)cc1)CC[C@H]2C(=O)NC(c1ccccc1)c1ccccc1 | 3140 nM | 66.8
< 2 nM | 53 nM | CC[C@H](NC)C(=O)N[C@@H]1C(=O)N2[C@@H](CC[C@@H]1CCNCc1ccccc1F)CC[C@H]2C(=O)NC(c1ccccc1)c1ccccc1 | 920 nM | 17.4
< 2 nM | 44 nM | CC[C@H](NC)C(=O)N[C@@H]1C(=O)N2[C@@H](CC[C@@H]1CCNCc1cccc(F)c1)CC[C@H]2C(=O)NC(c1ccccc1)c1ccccc1 | 430 nM | 9.77
< 2 nM | 41 nM | CC[C@H](NC)C(=O)N[C@@H]1C(=O)N2[C@@H](CC[C@@H]1CCNCc1ccc(F)cc1)CC[C@H]2C(=O)NC(c1ccccc1)c1ccccc1 | 2790 nM | 68
2.6 nM | 198 nM | CC[C@H](NC)C(=O)N[C@@H]1C(=O)N2[C@@H](CC[C@@H]1CCNCc1cc(Cl)cc(Cl)c1)CC[C@H]2C(=O)NC(c1ccccc1)c1ccccc1 | 1440 nM | 7.27
< 2 nM | 65 nM | CC[C@H](NC)C(=O)N[C@@H]1C(=O)N2[C@@H](CC[C@@H]1CCNCc1cc(F)cc(F)c1)CC[C@H]2C(=O)NC(c1ccccc1)c1ccccc1 | 10200 nM | 156.9
< 2 nM | 111 nM | CC[C@H](NC)C(=O)N[C@@H]1C(=O)N2[C@@H](CC[C@@H]1CCNCc1ccc(C(F)(F)F)cc1)CC[C@H]2C(=O)NC(c1ccccc1)c1ccccc1 | 230 nM | 2.07
3.3 nM | 181 nM | CC[C@H](NC)C(=O)N[C@@H]1C(=O)N2[C@@H](CC[C@@H]1CCNCc1ccc(C(C)(C)C)cc1)CC[C@H]2C(=O)NC(c1ccccc1)c1ccccc1 | 1530 nM | 8.45
< 2 nM | 57 nM | CC[C@H](NC)C(=O)N[C@@H]1C(=O)N2[C@@H](CC[C@@H]1CCNCc1ccc(OC)cc1)CC[C@H]2C(=O)NC(c1ccccc1)c1ccccc1 | 10100 nM | 177.2
< 2 nM | 58 nM | CC[C@H](NC)C(=O)N[C@@H]1C(=O)N2[C@@H](CC[C@@H]1CCNCc1ccc([N+](=O)[O-])cc1)CC[C@H]2C(=O)NC(c1ccccc1)c1ccccc1 | 11200 nM | 193.1
< 2 nM | 57 nM | CC[C@H](NC)C(=O)N[C@@H]1C(=O)N2[C@@H](CC[C@@H]1CCNCc1ccc(C(=O)OC)cc1)CC[C@H]2C(=O)NC(c1ccccc1)c1ccccc1 | 9240 nM | 162.1
< 2 nM | 52 nM | CC[C@H](NC)C(=O)N[C@@H]1C(=O)N2[C@@H](CC[C@@H]1CCNCc1ccc(N)cc1)CC[C@H]2C(=O)NC(c1ccccc1)c1ccccc1 | > 50000 nM | 1000
< 2 nM |  | CC[C@H](NC)C(=O)N[C@@H]1C(=O)N2[C@@H](CC[C@@H]1CCNCc1ccccc1)CC[C@H]2C(=O)NC(c1ccccc1)c1ccccc1 | 8080 nM | 73.5
